In BindingDB's records for doi:10.1016/s0960-894x(99)00197-3 (The R. W. Johnson Pharmaceutical Research Institute, 1999):
Where a SMILES comes first, the peptide text is derived from it. [ ]: non-standard residue; d: D form. The star is where a group is joined. Cha = N[C@@H](CC1CCCCC1)C(=O)O; Nicotinoyl = O=C(c1cccnc1)*; 3Abz = Nc1cccc(C(=O)O)c1

Test: Inhibition of [3H]S-(p-F-Phe)-Har-L-Har-KY-NH2 binding to Thrombin receptor 1 (PAR-1) on membranes from CHRF cells

Row | SMILES | EC50 [µM]
1 | CC(C)C[C@H](NC(=O)[C@H](CC(C)C)NC(=O)[C@H](Cc1ccccc1)NC(=O)[C@@H](N)CO)C(=O)N[C@@H](CCCNC(=N)N)C(=O)N[C@@H](CC(N)=O)C(N)=O [(S)-2-[(S)-2-((S)-2-{(S)-2-[(S)-2-((S)-2-Amino-3-hydroxy-propionylamino)-3-phenyl-propionylamino]-4-methyl-pentanoylamino}-4-methyl-pentanoylamino)-5-guanidino-pentanoylamino]-succinamide] | 0.28
2 | N=C(N)NCCC[C@H](NC(=O)[C@H](CC1CCCCC1)NC(=O)c1nnc(NC(=O)C=Cc2ccccc2Cl)[nH]1)C(=O)N[C@@H](Cc1ccccc1)C(N)=O [5-[(E)-3-(2-Chloro-phenyl)-acryloylamino]-1H-[1,2,4]triazole-3-carboxylic acid {(S)-1-[(S)-1-((S)-1-carbamoyl-2-phenyl-ethylcarbamoyl)-4-guanidino-butylcarbamoyl]-2-cyclohexyl-ethyl}-amide] | 1.1
3 | N=C(N)NCCC[C@H](NC(=O)[C@H](CC1CCCCC1)NC(=O)c1nnc(NC(=O)C=Cc2cccs2)[nH]1)C(=O)N[C@@H](Cc1ccccc1)C(N)=O [5-((E)-3-Thiophen-2-yl-acryloylamino)-1H-[1,2,4]triazole-3-carboxylic acid {(S)-1-[(S)-1-((S)-1-carbamoyl-2-phenyl-ethylcarbamoyl)-4-guanidino-butylcarbamoyl]-2-cyclohexyl-ethyl}-amide] | 2.9
4 | N=C(N)NCCC[C@H](NC(=O)[C@H](CC1CCCCC1)NC(=O)c1nnc(NC(=O)C=Cc2c[nH]c3ccccc23)[nH]1)C(=O)N[C@@H](Cc1ccccc1)C(N)=O [5-((E)-3-1H-Indol-3-yl-acryloylamino)-1H-[1,2,4]triazole-3-carboxylic acid {(S)-1-[(S)-1-((S)-1-carbamoyl-2-phenyl-ethylcarbamoyl)-4-guanidino-butylcarbamoyl]-2-cyclohexyl-ethyl}-amide] | 14
5 | N=C(N)NCCC[C@H](NC(=O)[C@H](CC1CCCCC1)NC(=O)c1nnc(NC(=O)C=Cc2ccc(C(F)(F)F)cc2)[nH]1)C(=O)N[C@@H](Cc1ccccc1)C(N)=O [5-[(E)-3-(4-Trifluoromethyl-phenyl)-acryloylamino]-1H-[1,2,4]triazole-3-carboxylic acid {(S)-1-[(S)-1-((S)-1-carbamoyl-2-phenyl-ethylcarbamoyl)-4-guanidino-butylcarbamoyl]-2-cyclohexyl-ethyl}-amide] | 5
6 | N=C(N)NCCC[C@H](NC(=O)[C@H](CC1CCCCC1)NC(=O)c1nnc(NC(=O)C=Cc2ccc(Cl)cc2)[nH]1)C(=O)N[C@@H](Cc1ccccc1)C(N)=O [5-[(E)-3-(4-Chloro-phenyl)-acryloylamino]-1H-[1,2,4]triazole-3-carboxylic acid {(S)-1-[(S)-1-((S)-1-carbamoyl-2-phenyl-ethylcarbamoyl)-4-guanidino-butylcarbamoyl]-2-cyclohexyl-ethyl}-amide] | 55
7 | COc1ccc(C=CC(=O)Nc2nnc(C(=O)N[C@@H](CC3CCCCC3)C(=O)N[C@@H](CCCNC(=N)N)C(=O)N[C@@H](Cc3ccccc3)C(N)=O)[nH]2)cc1 [5-[(E)-3-(4-Methoxy-phenyl)-acryloylamino]-1H-[1,2,4]triazole-3-carboxylic acid {(S)-1-[(S)-1-((S)-1-carbamoyl-2-phenyl-ethylcarbamoyl)-4-guanidino-butylcarbamoyl]-2-cyclohexyl-ethyl}-amide] | 5.6
8 | N=C(N)NCCC[C@H](NC(=O)[C@H](CC1CCCCC1)NC(=O)c1nnc(N)[nH]1)C(=O)N[C@@H](Cc1cccs1)C(N)=O [5-Amino-1H-[1,2,4]triazole-3-carboxylic acid {(S)-1-[(S)-1-((S)-1-carbamoyl-2-thiophen-2-yl-ethylcarbamoyl)-4-guanidino-butylcarbamoyl]-2-cyclohexyl-ethyl}-amide] | 10.5

Second part, the compound after the results:

Row | EC50 [µM] | SMILES
9 | 8 | N=C(N)NCCC[C@H](NC(=O)[C@H](CC1CCCCC1)NC(=O)c1cccnc1N)C(=O)N[C@@H](Cc1ccccc1)C(N)=O [2-Amino-N-{(S)-1-[(S)-1-((S)-1-carbamoyl-2-phenyl-ethylcarbamoyl)-4-guanidino-butylcarbamoyl]-2-cyclohexyl-ethyl}-nicotinamide]
10 | 1.3 | N=C(N)NCCC[C@H](NC(=O)[C@H](CC1CCCCC1)NC(=O)c1csnn1)C(=O)N[C@@H](Cc1ccccc1)C(N)=O [[1,2,3]Thiadiazole-4-carboxylic acid {(S)-1-[(S)-1-((S)-1-carbamoyl-2-phenyl-ethylcarbamoyl)-4-guanidino-butylcarbamoyl]-2-cyclohexyl-ethyl}-amide]
11 | 2 | N=C(N)NCCC[C@H](NC(=O)[C@H](CC1CCCCC1)NC(=O)c1cccnc1)C(=O)N[C@@H](Cc1ccccc1)C(N)=O [N-{(S)-1-[(S)-1-((S)-1-Carbamoyl-2-phenyl-ethylcarbamoyl)-4-guanidino-butylcarbamoyl]-2-cyclohexyl-ethyl}-nicotinamide] (Nicotinoyl-[Cha]-Arg-Phe-NH2)
12 | 1 | N=C(N)NCCC[C@H](NC(=O)[C@H](CC1CCCCC1)NC(=O)c1cnc2ccccc2n1)C(=O)N[C@@H](Cc1ccccc1)C(N)=O [Quinoxaline-2-carboxylic acid {(S)-1-[(S)-1-((S)-1-carbamoyl-2-phenyl-ethylcarbamoyl)-4-guanidino-butylcarbamoyl]-2-cyclohexyl-ethyl}-amide]
13 | 2.9 | N=C(N)NCCC[C@H](NC(=O)[C@H](CC1CCCCC1)NC(=O)c1cccc(N)c1)C(=O)N[C@@H](Cc1ccccc1)C(N)=O [3-Amino-N-{(S)-1-[(S)-1-((S)-1-carbamoyl-2-phenyl-ethylcarbamoyl)-4-guanidino-butylcarbamoyl]-2-cyclohexyl-ethyl}-benzamide] (H-[3Abz][Cha]RF-NH2)
14 | 8.3 | N=C(N)NCCC[C@H](NC(=O)[C@H](CC1CCCCC1)NC(=O)c1cc2ccccc2s1)C(=O)N[C@@H](Cc1ccccc1)C(N)=O [Benzo[b]thiophene-2-carboxylic acid {(S)-1-[(S)-1-((S)-1-carbamoyl-2-phenyl-ethylcarbamoyl)-4-guanidino-butylcarbamoyl]-2-cyclohexyl-ethyl}-amide]
15 | 4.6 | N=C(N)NCCC[C@H](NC(=O)[C@H](CC1CCCCC1)NC(=O)c1ccc(Cl)nc1)C(=O)N[C@@H](Cc1ccccc1)C(N)=O [N-{(S)-1-[(S)-1-((S)-1-Carbamoyl-2-phenyl-ethylcarbamoyl)-4-guanidino-butylcarbamoyl]-2-cyclohexyl-ethyl}-6-chloro-nicotinamide]
16 | 12.5 | N=C(N)NCCC[C@H](NC(=O)[C@H](CC1CCCCC1)NC(=O)c1cc2ccccc2o1)C(=O)N[C@@H](Cc1ccccc1)C(N)=O [Benzofuran-2-carboxylic acid {(S)-1-[(S)-1-((S)-1-carbamoyl-2-phenyl-ethylcarbamoyl)-4-guanidino-butylcarbamoyl]-2-cyclohexyl-ethyl}-amide]
17 | 1.2 | N=C(N)NCCC[C@H](NC(=O)[C@H](CC1CCCCC1)NC(=O)c1ccc(N)nc1)C(=O)N[C@@H](Cc1ccccc1)C(N)=O [6-Amino-N-{(S)-1-[(S)-1-((S)-1-carbamoyl-2-phenyl-ethylcarbamoyl)-4-guanidino-butylcarbamoyl]-2-cyclohexyl-ethyl}-nicotinamide]
18 | 14 | N=C(N)NCCC[C@H](NC(=O)[C@H](CC1CCCCC1)NC(=O)c1ccccn1)C(=O)N[C@@H](Cc1ccccc1)C(N)=O [Pyridine-2-carboxylic acid {(S)-1-[(S)-1-((S)-1-carbamoyl-2-phenyl-ethylcarbamoyl)-4-guanidino-butylcarbamoyl]-2-cyclohexyl-ethyl}-amide]
19 | 1.2 | N=C(N)NCCC[C@H](NC(=O)[C@H](CC1CCCCC1)NC(=O)c1ccc2c(c1)-c1ccccc1-2)C(=O)N[C@@H](Cc1ccccc1)C(N)=O [Biphenylene-2-carboxylic acid {(S)-1-[(S)-1-((S)-1-carbamoyl-2-phenyl-ethylcarbamoyl)-4-guanidino-butylcarbamoyl]-2-cyclohexyl-ethyl}-amide]
20 | 2.6 | N=C(N)NCCC[C@H](NC(=O)[C@H](CC1CCCCC1)NC(=O)C=Cc1cccnc1)C(=O)N[C@@H](Cc1ccccc1)C(N)=O [(S)-2-[(S)-3-Cyclohexyl-2-((E)-3-pyridin-3-yl-acryloylamino)-propionylamino]-5-guanidino-pentanoic acid ((S)-1-carbamoyl-2-phenyl-ethyl)-amide]

Test: Activation of human platelet aggregation (gel-filtered platelets) induced by alpha thrombin

Row | SMILES | EC50 [µM]
21 | N=C(N)NCCC[C@H](NC(=O)[C@H](CC1CCCCC1)NC(=O)c1nnc(NC(=O)C=Cc2ccc(F)cc2)[nH]1)C(=O)N[C@@H](Cc1ccccc1)C(N)=O [5-[(E)-3-(4-Fluoro-phenyl)-acryloylamino]-1H-[1,2,4]triazole-3-carboxylic acid {(S)-1-[(S)-1-((S)-1-carbamoyl-2-phenyl-ethylcarbamoyl)-4-guanidino-butylcarbamoyl]-2-cyclohexyl-ethyl}-amide] | 7.9
22 | N=C(N)NCCC[C@H](NC(=O)[C@H](Cc1ccccc1)NC(=O)c1ccc2nc[nH]c2c1)C(=O)N[C@@H](Cc1ccccc1)C(N)=O [1H-Benzoimidazole-5-carboxylic acid {(S)-1-[(S)-1-((S)-1-carbamoyl-2-phenyl-ethylcarbamoyl)-4-guanidino-butylcarbamoyl]-2-phenyl-ethyl}-amide] | 4.9

The remaining lines, values ahead:

Row | EC50 [µM] | SMILES
23 | 4.2 | N=C(N)NCCC[C@H](NC(=O)[C@H](CC1CCCCC1)NC(=O)c1nccnc1N)C(=O)N[C@@H](Cc1ccccc1)C(N)=O [3-Amino-pyrazine-2-carboxylic acid {(S)-1-[(S)-1-((S)-1-carbamoyl-2-phenyl-ethylcarbamoyl)-4-guanidino-butylcarbamoyl]-2-cyclohexyl-ethyl}-amide]
24 | 0.76 | N=C(N)NCCC[C@H](NC(=O)[C@H](CC1CCCCC1)NC(=O)c1nnc(N)[nH]1)C(=O)N[C@@H](Cc1ccccc1)C(N)=O [5-Amino-1H-[1,2,4]triazole-3-carboxylic acid {(S)-1-[(S)-1-((S)-1-carbamoyl-2-phenyl-ethylcarbamoyl)-4-guanidino-butylcarbamoyl]-2-cyclohexyl-ethyl}-amide]
25 | 0.51 | N=C(N)NCCC[C@H](NC(=O)[C@H](CC1CCCCC1)NC(=O)c1cc(=O)c2ccccc2o1)C(=O)N[C@@H](Cc1ccccc1)C(N)=O [4-Oxo-4H-chromene-2-carboxylic acid {(S)-1-[(S)-1-((S)-1-carbamoyl-2-phenyl-ethylcarbamoyl)-4-guanidino-butylcarbamoyl]-2-cyclohexyl-ethyl}-amide]
